Assay [1] has as its target T1, hNav1.7 (Homo sapiens (Human), UniProt Q15858). In words: Tritiated compound binding to membranes from cells heterologously expressing hNav1.7 and the β1 subunit (Nav1.7 LBA). The note with it: competitive binding vs [3H]compound, membranes with hNav1.7 and β1 subunit; read-out: Nav1.7 LBA EVO IC50. The method in brief:
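Membranes from cells expressing hNav1.7 with β1 were incubated at room temperature with a tritiated competitive Nav1.7 inhibitor plus test compound in 100 mM NaCl, 20 mM Tris pH 7.4, 0.01% BSA; nonspecific binding was set with 1 μM unlabeled compound. Incubation was 18 h with […] radioligand, or 3 h with […]. Bound ligand was filtered and counted, and IC50 came from a 4-parameter fit.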
Target sequence in this assay (Q15858 whole entry, looked up): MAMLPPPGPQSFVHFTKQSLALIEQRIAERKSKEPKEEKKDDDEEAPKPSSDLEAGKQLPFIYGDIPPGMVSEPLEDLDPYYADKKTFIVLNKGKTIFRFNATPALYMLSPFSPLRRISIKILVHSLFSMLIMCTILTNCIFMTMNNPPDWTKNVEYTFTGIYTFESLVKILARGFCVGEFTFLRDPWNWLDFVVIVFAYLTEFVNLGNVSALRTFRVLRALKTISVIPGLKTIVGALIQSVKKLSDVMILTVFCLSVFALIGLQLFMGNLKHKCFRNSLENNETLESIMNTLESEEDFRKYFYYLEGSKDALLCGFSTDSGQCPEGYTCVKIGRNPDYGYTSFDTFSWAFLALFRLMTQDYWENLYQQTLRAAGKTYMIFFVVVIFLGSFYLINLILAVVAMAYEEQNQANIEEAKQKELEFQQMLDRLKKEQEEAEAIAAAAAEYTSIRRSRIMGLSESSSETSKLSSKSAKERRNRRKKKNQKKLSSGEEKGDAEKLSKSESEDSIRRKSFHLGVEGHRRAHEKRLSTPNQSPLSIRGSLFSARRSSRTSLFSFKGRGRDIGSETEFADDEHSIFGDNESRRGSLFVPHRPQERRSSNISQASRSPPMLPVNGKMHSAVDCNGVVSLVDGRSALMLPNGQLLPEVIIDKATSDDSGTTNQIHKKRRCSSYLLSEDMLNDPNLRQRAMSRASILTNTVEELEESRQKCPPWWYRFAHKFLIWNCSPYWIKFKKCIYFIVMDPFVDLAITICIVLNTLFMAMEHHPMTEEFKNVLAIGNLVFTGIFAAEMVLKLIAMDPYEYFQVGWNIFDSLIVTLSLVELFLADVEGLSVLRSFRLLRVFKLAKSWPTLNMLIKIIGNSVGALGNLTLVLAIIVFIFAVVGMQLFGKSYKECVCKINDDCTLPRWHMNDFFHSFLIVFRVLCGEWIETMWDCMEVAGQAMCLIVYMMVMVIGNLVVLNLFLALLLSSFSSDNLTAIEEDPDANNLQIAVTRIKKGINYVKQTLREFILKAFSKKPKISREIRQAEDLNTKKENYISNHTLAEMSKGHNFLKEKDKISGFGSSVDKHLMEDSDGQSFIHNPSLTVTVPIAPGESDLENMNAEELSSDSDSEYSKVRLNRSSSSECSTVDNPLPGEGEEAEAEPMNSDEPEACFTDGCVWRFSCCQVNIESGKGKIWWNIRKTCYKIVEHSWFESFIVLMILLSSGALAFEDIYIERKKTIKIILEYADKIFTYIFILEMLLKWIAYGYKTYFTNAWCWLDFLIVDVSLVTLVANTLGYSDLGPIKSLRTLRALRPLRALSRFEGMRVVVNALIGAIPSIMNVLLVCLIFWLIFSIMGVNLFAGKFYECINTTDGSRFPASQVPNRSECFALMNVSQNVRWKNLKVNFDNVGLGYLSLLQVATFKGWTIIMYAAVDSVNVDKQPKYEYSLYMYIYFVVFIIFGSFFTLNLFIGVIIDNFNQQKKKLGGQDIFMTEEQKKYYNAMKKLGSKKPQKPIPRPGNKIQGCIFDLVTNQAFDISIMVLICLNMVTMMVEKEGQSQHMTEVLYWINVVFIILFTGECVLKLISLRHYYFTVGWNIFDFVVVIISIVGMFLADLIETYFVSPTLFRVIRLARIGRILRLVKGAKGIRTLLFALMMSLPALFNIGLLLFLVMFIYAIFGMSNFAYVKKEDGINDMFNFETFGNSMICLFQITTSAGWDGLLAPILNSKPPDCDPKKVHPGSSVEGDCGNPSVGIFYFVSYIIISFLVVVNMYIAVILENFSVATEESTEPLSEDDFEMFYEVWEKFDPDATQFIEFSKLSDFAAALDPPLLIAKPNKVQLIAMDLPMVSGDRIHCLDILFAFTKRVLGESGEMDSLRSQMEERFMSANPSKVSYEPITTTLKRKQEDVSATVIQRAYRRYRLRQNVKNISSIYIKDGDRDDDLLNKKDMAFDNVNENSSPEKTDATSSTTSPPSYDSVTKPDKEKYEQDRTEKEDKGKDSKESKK
Target sequence in this assay (Q07699 whole entry partner, looked up): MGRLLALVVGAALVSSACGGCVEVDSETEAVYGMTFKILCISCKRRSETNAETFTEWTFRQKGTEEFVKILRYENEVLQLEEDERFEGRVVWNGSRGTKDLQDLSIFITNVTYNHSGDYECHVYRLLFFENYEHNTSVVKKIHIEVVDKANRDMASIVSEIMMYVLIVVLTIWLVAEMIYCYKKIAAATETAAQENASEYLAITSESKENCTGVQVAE

Assay [2] addresses T1, hNav1.7. Put plainly: Electrophysiological assay (EP), voltage clamp on Syncropatch 384PE, CHO cells stably expressing Nav1.7. Format: cell-based. The note with it: holding potential −50 mV, 7.5 min compound incubation, read-out: EP_SP hNav1.7 EVO IC50. The method in brief:
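Whole-cell automated patch clamp was run on CHO cells stably expressing human Nav1.7 cDNA, with internal solution CsCl/EGTA pH 7.2, external solution 80 mM NaCl pH 7.4, and 0.1% Pluronic F-127. From a −50 mV holding potential: −10 mV for 10 ms, −150 mV for 20 ms, then −10 mV for 10 ms, where current was measured. Inhibition was taken after 7.5 min compound incubation, with TTX added for full block.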
Target sequence in this assay (Q15858 other isoform, or with tags, fused parts or gaps): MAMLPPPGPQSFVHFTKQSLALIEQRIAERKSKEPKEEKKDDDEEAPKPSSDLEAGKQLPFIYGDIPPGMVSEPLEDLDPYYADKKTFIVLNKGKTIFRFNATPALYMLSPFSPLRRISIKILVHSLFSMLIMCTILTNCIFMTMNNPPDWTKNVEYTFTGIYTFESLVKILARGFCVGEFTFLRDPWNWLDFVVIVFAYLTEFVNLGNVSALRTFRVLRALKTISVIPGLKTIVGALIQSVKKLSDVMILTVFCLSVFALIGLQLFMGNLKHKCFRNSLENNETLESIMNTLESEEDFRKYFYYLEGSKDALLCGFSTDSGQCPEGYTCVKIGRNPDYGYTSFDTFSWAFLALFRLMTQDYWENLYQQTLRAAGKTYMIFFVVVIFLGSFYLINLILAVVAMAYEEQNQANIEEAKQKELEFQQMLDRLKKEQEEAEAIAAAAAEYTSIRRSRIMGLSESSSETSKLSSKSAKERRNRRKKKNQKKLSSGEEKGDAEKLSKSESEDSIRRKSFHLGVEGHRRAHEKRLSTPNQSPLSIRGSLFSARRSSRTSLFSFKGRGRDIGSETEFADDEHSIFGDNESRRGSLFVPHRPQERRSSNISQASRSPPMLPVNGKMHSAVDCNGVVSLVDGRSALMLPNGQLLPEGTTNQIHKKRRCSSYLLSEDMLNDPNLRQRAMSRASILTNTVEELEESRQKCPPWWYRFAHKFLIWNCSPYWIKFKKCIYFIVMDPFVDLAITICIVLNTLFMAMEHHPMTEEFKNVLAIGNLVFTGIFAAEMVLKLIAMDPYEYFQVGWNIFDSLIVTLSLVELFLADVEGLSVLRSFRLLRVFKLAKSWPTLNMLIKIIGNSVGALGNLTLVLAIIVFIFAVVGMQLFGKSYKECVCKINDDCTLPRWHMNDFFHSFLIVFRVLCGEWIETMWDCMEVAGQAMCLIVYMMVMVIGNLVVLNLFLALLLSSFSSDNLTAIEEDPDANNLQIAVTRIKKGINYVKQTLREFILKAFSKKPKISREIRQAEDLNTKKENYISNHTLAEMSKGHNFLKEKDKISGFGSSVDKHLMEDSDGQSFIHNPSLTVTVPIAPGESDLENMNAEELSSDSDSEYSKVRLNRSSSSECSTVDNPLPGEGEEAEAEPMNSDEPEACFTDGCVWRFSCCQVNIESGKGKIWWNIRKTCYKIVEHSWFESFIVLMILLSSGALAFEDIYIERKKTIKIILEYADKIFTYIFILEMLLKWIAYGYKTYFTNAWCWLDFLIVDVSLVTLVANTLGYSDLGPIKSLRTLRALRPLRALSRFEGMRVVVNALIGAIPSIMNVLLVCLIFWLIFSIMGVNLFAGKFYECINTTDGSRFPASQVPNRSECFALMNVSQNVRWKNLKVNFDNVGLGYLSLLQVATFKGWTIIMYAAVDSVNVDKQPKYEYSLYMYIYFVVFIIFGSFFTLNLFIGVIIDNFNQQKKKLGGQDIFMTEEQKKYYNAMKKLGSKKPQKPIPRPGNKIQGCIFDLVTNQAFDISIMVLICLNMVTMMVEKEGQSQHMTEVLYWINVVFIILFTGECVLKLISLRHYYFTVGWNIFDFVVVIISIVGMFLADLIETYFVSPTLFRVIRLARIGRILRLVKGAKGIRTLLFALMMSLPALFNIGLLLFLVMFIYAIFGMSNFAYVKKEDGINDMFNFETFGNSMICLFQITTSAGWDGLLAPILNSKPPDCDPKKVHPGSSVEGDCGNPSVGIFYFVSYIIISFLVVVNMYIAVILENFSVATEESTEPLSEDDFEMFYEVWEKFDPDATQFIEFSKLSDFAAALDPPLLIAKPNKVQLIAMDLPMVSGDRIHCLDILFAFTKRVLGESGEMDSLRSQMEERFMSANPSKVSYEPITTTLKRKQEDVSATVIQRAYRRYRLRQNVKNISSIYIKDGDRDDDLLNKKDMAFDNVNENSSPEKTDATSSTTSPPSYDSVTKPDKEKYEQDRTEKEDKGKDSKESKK
Background: The patch-clamp technique gives a direct electrical read-out from membranes.

Each structure is given as a SMILES string. Counter-ions that a name gives are not always drawn.

On to `CN(C)[C@@H]1C[C@](O)(c2cccc(C(F)(F)F)c2)CC[C@H]1Nc1cc(F)c(S(=O)(=O)Nc2ccncn2)cc1Cl` (single isomer, unassigned) [Example 36, formate], for which the IC50 (usually the point on the concentration scale where inhibition reaches its midpoint) in assay [1] was determined as 309 nM; in assay [2], 144 nM.

On to `O=S(=O)(Nc1ccncn1)c1cc2c(cc1F)N([C@H]1CC[C@H](c3cccc(C(F)(F)F)c3)C[C@@H]1N1CCCC1)CCO2` [Example 47, 6-Fluoro-N-(pyrimidin-4-yl)-4-((1S,2S,4S)-2-(pyrrolidin-1-yl)-4-(3-(trifluoromethyl)phenyl)-cyclohexyl)-3,4-dihydro-2H-benzo[b][1,4]oxazine-7-sulfonamide], for which the values for the IC50 in assay [1] and in assay [2] were 0.794 nM and 1.16 nM, respectively.

On to `CN(C)[C@H]1C[C@@H](c2cccc(-n3cccn3)c2)CC[C@@H]1Nc1cc(F)c(S(=O)(=O)Nc2ccncn2)cc1Cl` [Example 20, 4-(((1S,2S,4S)-4-(3-(1H-pyrazol-1-yl)phenyl)-2-(dimethylamino)cyclohexyl)amino)-5-chloro-2-fluoro-N-(pyrimidin-4-yl)benzenesulfonamide formate], for which the IC50 was found to be 9.43 nM in assay [1] and 7.38 nM in assay [2].

On to `CN(C)CC(=O)N[C@H]1C[C@@H](c2cccc(C(F)(F)F)c2)CC[C@@H]1Nc1cc(F)c(S(=O)(=O)Nc2ccncn2)cc1Cl` [Example 28, N-((1S,2S,5S)-2-((2-chloro-5-fluoro-4-(N-(pyrimidin-4-yl)sulfamoyl)phenyl)amino)-5-(3-(trifluoromethyl)phenyl)cyclohexyl)-2-(dimethylamino)acetamide], for which the IC50 in assay [1] was determined as 84 nM; in assay [2] it was 36.3 nM.

On to `CN(C)[C@H]1C[C@@H](c2cccc(OC(F)(F)F)c2)CC[C@@H]1Oc1cc(F)c(S(=O)(=O)Nc2ccncn2)cc1F` [Example 59, 4-(((1S,2S,4S)-2-(dimethylamino)-4-(3-(trifluoromethoxy)phenyl)cyclohexyl)oxy)-2,5-difluoro-N-(pyrimidin-4-yl)benzenesulfonamide formate], for which the IC50 in assay [1] is 32.6 nM; in assay [2] it was 1.62 nM.

As to `CN(C)[C@H]1C[C@@H](c2cccc(CC(F)(F)F)c2)CC[C@@H]1Nc1cc(F)c(S(=O)(=O)Nc2ccncn2)cc1Cl` [Example 27, 5-chloro-4-(((1S,2S,4S)-2-(dimethylamino)-4-(3-(2,2,2-trifluoroethyl)phenyl)cyclohexyl)-amino)-2-fluoro-N-(pyrimidin-4-yl)benzenesulfonamide], the values for the IC50 in assay [1] and in assay [2] were 1.22 nM and 1.33 nM, respectively.

Take `CN(C)[C@H]1C[C@@H](c2cc(F)cc(C(F)(F)F)c2)CC[C@@H]1Nc1cc(F)c(S(=O)(=O)Nc2ccncn2)cc1Cl` [Example 15, 5-Chloro-4-[[(1S,2S,4S)-2-(dimethylamino)-4-[3-fluoro-5-(trifluoromethyl)phenyl]-cyclohexyl]amino]-2-fluoro-N-pyrimidin-4-yl-benzenesulfonamide formic acid]: the IC50 in assay [1] worked out at 0.886 nM; in assay [2], 0.61 nM.

On to `CN(C)[C@H]1C[C@@H](c2cccc(C(F)(F)F)c2)CC[C@@H]1Nc1cc(F)c(S(=O)(=O)Nc2ccncn2)cc1OC(F)F` [Example 5, 5-(Difluoromethoxy)-4-(((1S,2S,4S)-2-(dimethylamino)-4-(3-(trifluoromethyl)phenyl)-cyclohexyl)amino)-2-fluoro-N-(pyrimidin-4-yl)benzenesulfonamide formate], for which the IC50 in assay [1] was 1.37 nM; in assay [2] it was 0.519 nM.

For `CN[C@H]1C[C@@H](c2cccc(C(F)(F)F)c2)CC[C@@H]1Oc1cc(F)c(S(=O)(=O)Nc2ccncn2)cc1Cl` [Example 63, 5-chloro-2-fluoro-4-(((1S,2S,4S)-2-(methylamino)-4-(3-(trifluoromethyl)phenyl)-cyclohexyl)oxy)-N-(pyrimidin-4-yl)benzenesulfonamide], the IC50 in assay [1] was found to be 11.2 nM; in assay [2], 0.709 nM.

Source of the values: patent publication US11028075B2, “Therapeutic compounds and methods of use thereof” (GENENTECH, INC., priority 2018, dated 2021).
